Measured values as given in US12533337B2, “Pharmaceutical drug containing heterocyclidene acetamide derivative” (SENJU PHARMACEUTICAL CO., LTD., priority 2019, dated 2026).
Entries after “also recorded” stand apart in the source; their conditions may differ.

What was measured:
Assay type in all cases: in vivo
[1] = tested on: rat scopolamine-induced dry eye model; test: Number of blinks under a low humidity environment in a rat scopolamine-induced dry eye model; settings: for number of blinks within 5 minutes / number of blinks within 5 minutes vs vehicle at 0.5 hours: single administration; for number of blinks within 5 minutes: 0.5 hours after
Procedure: Compound (1) was used as a tested substance. In the same manner as Test Example 1, compound (1) was suspended in a buffer to prepare suspension eye drops with a concentration of compound (1) of 0.1 w/v %, 0.3 w/v %, and 1.0 w/v %. A compound (1)-free vehicle eye drop consisting of only a vehicle was also prepared as a control group.
A rat scopolamine-induced dry eye model was prepared by the same method as Test Example 1.
After about 2.5 hours from implanting an osmotic pump, dry air supplied from an air compressor was sent into an experiment chamber (SJ-1500N, Natsume Seisakusho) to create a low humidity environment (20% RH or lower).
5 μL of a vehicle eye drop or 0.1 w/v %, 0.3 w/v %, or 1.0 w/v % compound (1) suspension eye drop was administered once to the right eye using a micropipette, 0.5 hours before measuring the number of blinks.
After 8 days or more from starting raising the rats in a low humidity environment, the rats were taken out from a breeding cage. The animals were placed in a cage comprised of chain link fencing on all sides (behavior measurement environment cage) to facilitate measurement of the number of blinks. After acclimation for 0.5 hours under a normal environment, the behavior measurement environment cage was transferred to an experiment chamber, and the number of blinks of the right eye of rats was measured for 5 minutes under a low humidity environment. A test was conducted in four separate phases using the same animals after a drug withdrawal period of 2 days or more (crossover test).
By using the same evaluation method as Text Example 2, the sustainability of an effect of improving a subjective symptom was examined.
(§1) 1.0 w/v % compound (1) suspension eye drop was administered for an extended period using a rat scopolamine-induced dry eye model prepared by the same method as Test Example 2. The model was treated under a low humidity environment (20% RH or less) only when measuring the number of blinks.
(§2) 5 μL of 1.0 w/v % compound (1) suspension eye drop and vehicle eye drop was administered to the right eye 4 times a day by using a micropipette.
(§3) An effect of improving SPK (SPK score) was evaluated by the same method as Test Example 1 on day 8 of sample administration. The number of blinks of the right eye was measured for 5 minutes under a low humidity environment after 4 hours from the initial administration on day 7 of administration (2 weeks post-surgery) by the same method as Text Example 2.

[2] = tested on: rat scopolamine-induced dry eye model; test: Observation of superficial punctate keratitis (SPK) in a rat scopolamine-induced dry eye model
Procedure: as §1, §2, §3

[3] = tested on: Vi/Vc zone of the medulla oblongata; test: Measurement of c-Fos positive cell count in the Vi/Vc zone of the medulla oblongata, rat scopolamine-induced dry eye model; settings: 0.3 w/v % suspension eye drop
Procedure: 5 μL of eye drop was administered to the right eye using a micropipette, 4 times a day with an interval of 2 hours or longer. A vehicle eye drop was administered to the Sham group.
After a rat was allowed to bleed to death by perfusion of saline, Zamboni's Fixative was perfused to extract the medulla oblongata. After sectioning the extracted medulla oblongata, the medulla oblongata was stained by immunohistochemical staining by using an anti-c-Fos antibody (product name: Rabbit Anti-Human c-Fos Polyclonal Antibody, sc-52, Santa Cruz Biotechnology, Inc.).

Question: For O=C(/C=C1\CCOc2cc(C(F)(F)F)ccc21)Nc1cccc2c1C[C@H](O)CC2 [compound (1), (E)-2-(7-trifluoromethylchroman-4-ylidene)-N-((7R)-7-hydroxy-5,6,7,8-tetrahydronaphthalen-1-yl)acetamide], which “number of blinks within 5 minutes” value ([1]; 0.1 w/v % suspension eye drop, low humidity) is on record?
Answer: reduced

Question: And the “number of blinks within 5 minutes” value ([1]; 0.3 w/v % suspension eye drop, low humidity)?
Answer: significant effect

Question: What about the “number of blinks within 5 minutes compared to a vehicle eye drop” value ([1]; 1.0 w/v % suspension eye drop, repeated administration 4 times a day, 4 hours after initial administration on day 7, low humidity (Example 4)) of the same compound?
Answer: reduced

Question: And the “number of blinks within 5 minutes” value ([1]; 1.0 w/v % suspension eye drop, low humidity (Test Example 2))?
Answer: significant effect

Question: And the “number of blinks within 5 minutes vs vehicle at 0.5 hours” value (from here on “number … vs vehicle at 0.5 hours”) ([1]; 1.0 w/v % suspension eye drop, after 0.5 hours (Example 3))?
Answer: significantly reduced; also recorded: reduced significantly

Question: And the “number … vs vehicle at 0.5 hours” value ([1]; 1.0 w/v % suspension eye drop, after 4 hours (Example 3))?
Answer: significantly reduced; also recorded: reduced significantly

Question: And the “number … vs vehicle at 0.5 hours” value ([1]; 1.0 w/v % suspension eye drop, after 8 hours (Example 3))?
Answer: reduced

Question: And the “SPK score compared to a vehicle eye drop” value ([2]; 0.3 w/v % suspension eye drop, after 7 days from administration (15 days post-surgery))?
Answer: significantly reduced

Question: What about the “SPK score effect compared to a vehicle eye drop” value ([2]; 0.3 w/v % suspension eye drop, after 14 days from administration (22 days post-surgery)) of the same compound?
Answer: sustained

Question: What about the “SPK score compared to a vehicle eye drop” value ([2]; 1.0 w/v % suspension eye drop, 4 times a day, 8 days of repeated administration (Example 4)) of the same compound?
Answer: significantly reduced

Question: And the “c-Fos positive cell count in the Vi/Vc zone of the medulla oblongata compared to a vehicle eye drop” value ([3]; 14 days of administration)?
Answer: reduced

Question: What about the “c-Fos positive cell count” value ([3]; SCOP model, 5 μL right eye 4 times a day for 14 days, Vi/Vc zone, 22 days post-surgery) of the same compound?
Answer: 8.8 ± 3.8 cells/section
